Data taken from ChEMBL document CHEMBL3576770, “Spirotetronate polyketides as leads in drug discovery” (J Nat Prod, 2015).
One block for each compound: values may come before it.

How the values were obtained:
P388 = test: Cytotoxicity against mouse P388 cells; type: functional, cell-based
L1210 = test: Cytotoxicity against mouse L1210 cells; type: functional, cell-based
[1] = Antitumor activity against mouse EAC implanted in ddy-SLC mouse at 2.5 mg/kg, ip qd administered day 1 to 5 starting 24 hrs post tumor implantation; type: functional, Ehrlich
[2] = molecular target: T1, Gastrin/cholecystokinin type B receptor (Rattus norvegicus, UniProt P30553); test: Inhibition of CCK-B receptor in rat cerebral cortex; type: tissue-based
T1 sequence (P30553 whole entry): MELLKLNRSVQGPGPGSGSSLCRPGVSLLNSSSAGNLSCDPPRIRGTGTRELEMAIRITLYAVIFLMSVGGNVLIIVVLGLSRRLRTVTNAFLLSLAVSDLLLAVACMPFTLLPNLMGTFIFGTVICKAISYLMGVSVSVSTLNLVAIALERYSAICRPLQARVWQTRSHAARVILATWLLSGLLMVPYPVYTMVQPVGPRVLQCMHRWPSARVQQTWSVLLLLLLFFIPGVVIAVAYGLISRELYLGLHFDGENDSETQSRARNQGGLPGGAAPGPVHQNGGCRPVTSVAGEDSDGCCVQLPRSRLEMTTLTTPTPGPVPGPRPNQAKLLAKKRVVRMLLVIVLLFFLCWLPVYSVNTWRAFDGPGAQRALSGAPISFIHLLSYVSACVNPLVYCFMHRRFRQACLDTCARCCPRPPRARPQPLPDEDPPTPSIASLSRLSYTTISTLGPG

Staphylococcus aureus = test: Antimicrobial activity against methicillin-resistant Staphylococcus aureus assessed as inhibition of microbial proliferation; type: functional
[3] = Inhibition of gastric ATPase (unknown origin); type: tissue-based, Homo sapiens, Stomach
B16 = test: Cytotoxicity against mouse B16 cells; type: functional
[4] = Toxicity in ip dosed ICR mouse implanted with mouse EAC; type: organism-based; details: in vivo

SMILES: C=C1C(=O)[C@]2(C)C(=O)O[C@@]34C[C@H](C)C(C(=O)O)=C[C@@H]3CCC[C@@H](C)C[C@@H](C)[C@H]1OC24
IC50 (P388; Mus musculus, P388): 89 nM
IC50 (L1210): 216 nM
T/C [1]: 145.7%

IC50 [2]: 3.6 nM
SMILES: CC1=CC2C/C=C/C=C/CC(O)C/C=C/CC(C)C3C(CSC3C(=O)C(=O)O)C(=O)C3=C(O)C2(CC1C)OC3=O (stereo not given)

SMILES: C[C@@H]1C[C@H](C)C(=O)/C=C/[C@@H]2[C@@H](O)[C@H]3OC4=C(C(=O)O[C@@]42C[C@H]3C)C1=O (single isomer, unassigned; atropisomer)
MIC (Staphylococcus aureus): 3.5 µg/mL

IC50 [3]: 500 nM
SMILES: CC[C@@H]1C[C@]23OC(=O)C(=C2O)[C@@H](O)[C@@H](C)C[C@H](C)CCC[C@]3(C)C=C1C

SMILES: C[C@@H]1C[C@H](C)C(=O)/C=C/[C@@H]2[C@@H](O)[C@H]3OC4=C(C(=O)O[C@@]42C[C@H]3C)C1=O
MIC (Staphylococcus aureus; Staphylococcus aureus, read-out: MIC): 5.2 µg/mL

SMILES: COC(=O)N[C@@H]1[C@H](C)O[C@@H](O[C@H]2C/C=C(\C)[C@@H]3C=C[C@@H]4[C@@H](O[C@H]5C[C@H](O[C@@H]6CC[C@H](C)[C@@H](O[C@H]7C[C@H](O)[C@H](O[C@@H]8CC[C@H](O)[C@@H](C)O8)[C@@H](C)O7)O6)[C@H](OC(C)=O)[C@@H](C)O5)[C@@H](C)C[C@H](C)[C@H]4[C@]3(C)C(=O)C3=C(O)[C@@]4(CC(C=O)=C[C@H](O)[C@H]4/C=C/2C)OC3)C[C@@]1(C)N
INH (B16): 25 µg/mL
INH (P388): 6.25 µg/mL

SMILES: COc1ccc(Cl)c(C)c1C(=O)O[C@@H]1C[C@H](O[C@H]2[C@H](C)O[C@@H](O[C@H]3CCC[C@@H]4[C@@H]3C=C[C@H]3CCCC/C=C/[C@@H]5C=C(C(=O)O)[C@H](C)C[C@]56OC(=O)C(=C6O)OC(=O)[C@@]43C)C(O)[C@@H]2O)O[C@H](C)[C@H]1O (stereo not given in full)
LD50 [4]: 295 mg/kg
